Reference: patent publication US9371292B2, “Quinazoline derivative, preparation method therefor, intermediate, composition and application thereof” (SHANGHAI PHARMACEUTICALS HOLDINGS CO., LTD., priority 2011, dated 2016)
Where a name gives a salt, the structure may show the parent alone. Read-outs that look alike come from different tables or passages of the source.

Columns and labels:
HER2 = HER2 (Homo sapiens, UniProt P04626); assay: Mobility shift assay, kinase inhibition (HER2); format: biochemical; details: read-out: Kinase inhibitory activity IC50 (nM) HER2
Sequence of HER2 (P04626 23-1255): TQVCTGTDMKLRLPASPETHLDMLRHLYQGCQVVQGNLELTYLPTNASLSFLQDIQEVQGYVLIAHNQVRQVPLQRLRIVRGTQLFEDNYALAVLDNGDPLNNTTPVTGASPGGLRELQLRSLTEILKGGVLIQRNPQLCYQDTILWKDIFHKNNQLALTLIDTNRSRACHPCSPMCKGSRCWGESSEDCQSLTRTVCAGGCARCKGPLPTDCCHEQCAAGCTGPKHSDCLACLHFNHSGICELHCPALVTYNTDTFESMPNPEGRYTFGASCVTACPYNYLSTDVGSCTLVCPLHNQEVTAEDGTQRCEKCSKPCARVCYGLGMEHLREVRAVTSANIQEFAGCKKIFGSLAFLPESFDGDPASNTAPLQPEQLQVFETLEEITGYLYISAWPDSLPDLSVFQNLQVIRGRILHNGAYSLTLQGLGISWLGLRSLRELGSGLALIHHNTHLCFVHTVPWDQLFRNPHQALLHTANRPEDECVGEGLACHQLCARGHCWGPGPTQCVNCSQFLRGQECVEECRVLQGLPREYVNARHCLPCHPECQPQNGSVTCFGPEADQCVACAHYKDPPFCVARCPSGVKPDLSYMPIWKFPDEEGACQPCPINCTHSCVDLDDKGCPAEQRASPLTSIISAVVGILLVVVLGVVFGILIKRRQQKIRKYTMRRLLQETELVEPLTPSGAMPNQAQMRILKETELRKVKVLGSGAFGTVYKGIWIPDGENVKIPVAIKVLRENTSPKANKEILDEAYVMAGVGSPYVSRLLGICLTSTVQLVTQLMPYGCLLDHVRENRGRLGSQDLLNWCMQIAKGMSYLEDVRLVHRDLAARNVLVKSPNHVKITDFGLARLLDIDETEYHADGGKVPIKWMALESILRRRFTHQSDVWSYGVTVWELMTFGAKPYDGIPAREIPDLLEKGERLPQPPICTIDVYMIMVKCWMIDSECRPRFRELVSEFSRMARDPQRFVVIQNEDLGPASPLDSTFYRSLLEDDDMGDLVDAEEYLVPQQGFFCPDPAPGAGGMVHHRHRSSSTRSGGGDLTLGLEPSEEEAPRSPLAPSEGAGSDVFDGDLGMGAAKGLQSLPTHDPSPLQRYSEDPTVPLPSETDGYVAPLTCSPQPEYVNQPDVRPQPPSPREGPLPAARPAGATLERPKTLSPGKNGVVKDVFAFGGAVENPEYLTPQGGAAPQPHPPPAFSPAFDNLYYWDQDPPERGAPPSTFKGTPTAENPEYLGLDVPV
Protocol: (§1) Enzyme activity assay was test by the Mobility shift assay method (Expert Opin Drug Discov. 2008, 3(6): 607-621). A 10 mM stock solution of the test compound in DMSO were made after weighing. According to the required concentration, proper quantity of the 10 mM stock solution was dissolved in water to get a work solution with a concentration 5 times the final concentration. And various kinases, EGFR, HER2, HER4 were dissolved into a reaction buffer with a concentration 1.25 times the required concentration (62.5 mM HEPES, pH7.5, 0.001875% Brij-35, 12.5 mM MgCl2, 2.5 mM DTT), and get a enzyme work solution with a concentration 2.5 times the final concentration. At the same time, ATP and FAM tag peptide substrates will be dissolved in the reaction buffer with a concentration of 1.25× to get a substrate and ATP working solution with a concentration 2.5 times the required concentration. Then 5 μl the work solution of compound is added to 384 wells test plate, 5 μl 250 mM EDTA is added to a blank control, the same volume of work solution without drug is added to the negative control (Max). 10 μl Enzyme work solution is added at the same time. After mix gently and hatch for 10 minutes at room temperature, 10 μl substrate and ATP work solution are added to each well. The test plates are placed at 28 degrees for 60 mins. Then 25 μl suspending liquid is added into each reaction well (100 mM HEPES, pH7.5, 0.015% Brij-35, 0.2% Coating Reagent#3, 50 mM EDTA) to quench the enzyme reaction. Finally, the plate is put on Caliper EZ reader to collect conversion rate of the substrate in each well (The phosphorylation ratio of the substrate caused by the kinases). Based on the data described above, the kinase inhibitory of the compound can be calculated as follows: % inh=(Max−conversion)/(Max−Min)×100, wherein % inh is percent inhibition, Max is the conversion ratio of the substrate in negative control well, min is the conversion ratio of the substrate in blank control well, conversion is the conversion rate of substrate in each well with various concentration of the test compound. The % inh value of each concentration of the test compound would be analyzed in Xlift to obtain the corresponding IC50 value, the curve fitting formula is: Y=Bottom+(Top−Bottom)/(1+10^((Log IC50−X)*Hillslope))

EGFR = EGFR (Homo sapiens, UniProt P00533); assay: Mobility shift assay, kinase inhibition (EGFR); format: biochemical; details: read-out: Kinase inhibitory activity IC50 (nM) EGFR
Sequence of EGFR (P00533 25-1210): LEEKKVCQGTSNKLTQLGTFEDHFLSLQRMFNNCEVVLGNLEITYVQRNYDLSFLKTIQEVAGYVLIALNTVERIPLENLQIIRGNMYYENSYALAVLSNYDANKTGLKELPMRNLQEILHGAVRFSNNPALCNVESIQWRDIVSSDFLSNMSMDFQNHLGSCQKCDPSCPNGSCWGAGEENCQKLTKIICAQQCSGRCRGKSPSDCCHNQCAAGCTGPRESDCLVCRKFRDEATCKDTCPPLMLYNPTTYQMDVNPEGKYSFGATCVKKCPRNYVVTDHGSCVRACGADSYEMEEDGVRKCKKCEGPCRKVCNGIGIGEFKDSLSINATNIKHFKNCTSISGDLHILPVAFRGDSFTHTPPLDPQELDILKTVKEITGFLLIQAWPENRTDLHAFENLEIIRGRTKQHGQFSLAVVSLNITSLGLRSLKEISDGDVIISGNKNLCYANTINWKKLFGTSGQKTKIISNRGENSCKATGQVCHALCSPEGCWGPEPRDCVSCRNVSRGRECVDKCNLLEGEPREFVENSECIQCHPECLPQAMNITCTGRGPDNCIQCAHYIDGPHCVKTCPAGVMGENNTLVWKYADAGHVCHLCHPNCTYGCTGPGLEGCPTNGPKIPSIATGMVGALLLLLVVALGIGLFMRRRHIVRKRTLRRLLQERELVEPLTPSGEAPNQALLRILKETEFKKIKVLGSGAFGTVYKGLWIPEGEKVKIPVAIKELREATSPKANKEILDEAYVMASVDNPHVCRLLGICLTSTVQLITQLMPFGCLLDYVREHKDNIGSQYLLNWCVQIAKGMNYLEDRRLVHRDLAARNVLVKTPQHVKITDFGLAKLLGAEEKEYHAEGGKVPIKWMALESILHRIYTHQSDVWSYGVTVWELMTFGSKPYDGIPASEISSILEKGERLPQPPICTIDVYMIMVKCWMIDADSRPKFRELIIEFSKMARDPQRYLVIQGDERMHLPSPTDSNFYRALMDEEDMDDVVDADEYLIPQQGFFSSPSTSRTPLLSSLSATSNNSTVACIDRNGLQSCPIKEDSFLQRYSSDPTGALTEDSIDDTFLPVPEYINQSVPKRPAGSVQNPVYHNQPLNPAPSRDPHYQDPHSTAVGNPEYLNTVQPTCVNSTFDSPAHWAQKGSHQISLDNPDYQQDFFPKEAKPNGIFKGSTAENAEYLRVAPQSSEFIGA
Protocol: as §1

HER4 = HER4 (Homo sapiens, UniProt Q15303); assay: Mobility shift assay, kinase inhibition (HER4); format: biochemical; details: read-out: Kinase inhibitory activity IC50 (nM) HER4
Sequence of HER4 (Q15303 26-1308): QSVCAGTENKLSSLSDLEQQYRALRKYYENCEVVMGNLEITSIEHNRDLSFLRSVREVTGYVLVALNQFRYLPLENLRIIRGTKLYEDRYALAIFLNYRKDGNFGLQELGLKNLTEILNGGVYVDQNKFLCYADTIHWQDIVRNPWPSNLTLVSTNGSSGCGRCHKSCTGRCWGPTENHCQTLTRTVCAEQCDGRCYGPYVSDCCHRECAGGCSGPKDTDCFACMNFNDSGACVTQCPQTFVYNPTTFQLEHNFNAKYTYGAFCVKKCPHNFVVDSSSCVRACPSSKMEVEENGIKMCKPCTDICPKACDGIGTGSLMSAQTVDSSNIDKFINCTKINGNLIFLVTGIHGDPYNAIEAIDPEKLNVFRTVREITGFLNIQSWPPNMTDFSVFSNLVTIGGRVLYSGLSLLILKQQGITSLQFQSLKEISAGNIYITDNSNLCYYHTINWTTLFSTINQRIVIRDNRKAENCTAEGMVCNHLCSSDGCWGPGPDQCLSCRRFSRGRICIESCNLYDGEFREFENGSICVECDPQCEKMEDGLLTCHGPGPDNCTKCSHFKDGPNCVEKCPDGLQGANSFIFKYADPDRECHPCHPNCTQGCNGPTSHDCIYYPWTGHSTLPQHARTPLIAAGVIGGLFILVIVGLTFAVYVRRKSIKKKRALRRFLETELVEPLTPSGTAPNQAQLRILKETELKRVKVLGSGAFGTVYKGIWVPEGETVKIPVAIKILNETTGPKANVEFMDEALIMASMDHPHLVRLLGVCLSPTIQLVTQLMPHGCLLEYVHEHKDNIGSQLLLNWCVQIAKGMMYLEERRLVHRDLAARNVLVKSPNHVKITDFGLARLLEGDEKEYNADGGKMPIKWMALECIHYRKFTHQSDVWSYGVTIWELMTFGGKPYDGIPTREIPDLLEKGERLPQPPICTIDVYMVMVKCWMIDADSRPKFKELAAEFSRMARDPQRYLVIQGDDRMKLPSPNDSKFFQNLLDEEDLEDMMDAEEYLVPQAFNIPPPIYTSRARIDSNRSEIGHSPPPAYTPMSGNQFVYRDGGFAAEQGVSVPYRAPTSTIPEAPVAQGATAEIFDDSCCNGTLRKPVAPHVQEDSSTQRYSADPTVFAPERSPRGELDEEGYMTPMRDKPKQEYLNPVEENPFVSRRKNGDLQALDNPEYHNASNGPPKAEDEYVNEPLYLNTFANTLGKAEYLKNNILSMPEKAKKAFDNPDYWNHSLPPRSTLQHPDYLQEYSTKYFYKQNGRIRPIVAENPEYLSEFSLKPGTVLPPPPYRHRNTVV
Protocol: as §1

NCI-H1975 = format: in vivo, BALB/c nude mice; details: for Inhibition of growth of NCI-H1975 in nude mice (in words): 60 mpk; for Inhibition of growth of NCI-H1975 in nude mice (in words) / Tolerability in mice: 60 mg/kg; for Tolerability in mice: mouse, in vivo, po; for Inhibition of growth of NCI-H1975 in nude mice (in words) / Tumor volume: NCI-H1975 nude mice; for Tumor volume: 60 mg/kg PO QD
Excerpt: Preparation method: dissolve the test compound in 20% PEG400+3% Tween80 to obtain a required concentration; dissolve the control group in 0.5% CMC+0.4% Tween80 to obtain a required concentration.
BALB/c nude mice (Shanghai xipuer-bikai experimental animals company), weight 16-18 g, female. BD matrigel, NCI-H1975 cell (ATCC)
Cells in logarithmic phase were collected. The ratio of medium to matrigel was 1:1. The concentration of cell was adjust to 3×10^7/ml and put into a ice box, then inoculated in each nude mice subcutaneously with 0.2 ml. Then carry out intragastric administration once a day for 5 days and stop administration for 2 days. Administrate for 9 days in total. Dosages are as follows:
The size and weight were measured. The length and width of tumors were measured individually with microcalipers. Tumor volume (V) and relative tumor volume (RTV) was calculated as formula. Day 12, all the nude mouse were killed and the tumors were taken out and pictured. The individual as follows: RTV=Vt/V0, where Vt is and V0 is. and the calculation formula is T/C (%)=mean RTV of the treated group/mean RTV of the control group×100%.
(1) Tumor volume (Tumor Volume, TV), calculation formula: […], wherein a and b presents length and width respectively.
(2) Relative Tumor Volume (RTV), calculation formula: RTV=Vt/V0.
Wherein TV0 is the volume on the day of initial treatment, TVt is the volume on each day of measurement.
(3) The relative tumor increment rate T/C (%), calculation formula: […]
TRTV: treated group RTV; CRTV: negative control group RTV.
Therapeutic effect of compound was expressed in terms of T/C %.

[1] = system: NCI-H1975 L858R T790M cell; assay: Proliferation inhibition, H1975 cells (CellTiter-Glo); format: cell-based; details: Homo sapiens, 48 hours
Protocol: (§2) This example is to determine the proliferation inhibitory activity against wide type of high expression cell lines A431 of EGFR and mutant cell lines NCI-H1975^L858RT790M, the proliferation inhibitory activity in cell-based level of compound is expressed by IC50. The test method is as follows: both cell lines are purchased from American type culture collection (ATCC). The cells are seeded in a white and opaque 384-well culture plate with a proper concentration (A431: 20000 cells/ml medium; H1975: 15000 cells/ml medium), cultured at 37° C. with 5% CO2 for 24 hrs, a series of medicine with gradient concentration is added, generally 10 concentrations, cultured for another 48 hours under the previous conditions. The assays of the proliferation inhibitory activity against the A431 and H1975 cell of the test compounds are performed by the CellTiter-Glo Luminescent Cell Viability Assay and calculate the proliferation inhibitory activity of compound with different concentrations. CellTiter-Glo Luminescent Cell Viability Assay is purchased from Promega. Fit the data of proliferation inhibitory activity against A431 and H1975 of compounds with different concentrations with 4-parameter equation.

A431 cell = assay: Proliferation inhibition, A431 cells (CellTiter-Glo); format: cell-based; details: Homo sapiens, A-431, 48 hours
Protocol: as §2

EGFR tyrosine kinase = target: T1, EGFR tyrosine kinase (Homo sapiens, UniProt P00533); assay: HTRF assay, inhibition of EGFR tyrosine kinase; format: biochemical; details: HTRF method
T1 construct: purchased Sigma Aldrich
T1 sequence (P00533 25-1210): as the sequence (P00533 25-1210) above
Protocol: The activity of inhibitory against the kinase of the test compound is expressed by IC50. The assays are performed by Homogeneous time-resolved fluorescence (HTRF) method which is as follows: a series of synthesized analogues with gradient concentration are incubated for 5 minutes in enzymatic solution with specific concentration (for EGFR) at room temperature. Then proper amount of substrate and ATP are added into the reaction mixture to start the enzyme reaction. The assays of the specific concentration of compound is measured by Flexstation III of Molecular device company after the stop buffer and detecting liquid are added to the enzyme reaction system and hatch at room temperature for 1 hour. And the activity of inhibitory against the kinase of the test compound with different concentration will be calculated, then according to the 4-parameter equation, fit the inhibitory activity of the test compound with different concentration to get the IC50. EGFR is purchased from Sigma Aldrich. The HTRF KinEASE-TK is purchased from Cisbio Bioassays. ATP is purchased from Sigma Aldrich.

Row | IC50 (HER2) [nM] | IC50 (EGFR) [nM] | IC50 (HER4) [nM] | SMILES | Tolerability in mice (NCI-H1975) | Tumor volume (NCI-H1975; Day 0) [mm^3] | Tumor volume (NCI-H1975; Day 2) [mm^3] | Tumor volume (NCI-H1975; Day 4) [mm^3] | Tumor volume (NCI-H1975; Day 7) [mm^3] | Tumor volume (NCI-H1975; Day 9) [mm^3] | Tumor volume (NCI-H1975; Day 11) [mm^3] | other results
1 | 168 | 1.7 | 21 | COc1cc2ncnc(Nc3ccc(F)c(Cl)c3)c2cc1NC(=O)C(F)=CCN(C)C (mixture of isomers) [Compound 1, N-(4-((3-chloro-4-fluorophenyl)amino)-7-methoxyquinazolin-6-yl)-4-(dimethylamino)-2-fluorobut-2-enamide] | – | – | – | – | – | – | – | –
2 | – | 2.5 | – | COCCOc1cc2ncnc(Nc3ccc(F)c(Cl)c3)c2cc1NC(=O)C(F)=CCN(C)C (mixture of isomers) [Compound 3-1, N-(4-((3-chloro-4-fluorophenyl)amino)-7-(2-methoxyethoxy)quinazolin-6-yl)-4-(dimethylamino)-2-fluorobut-2-enamide] | – | – | – | – | – | – | – | –
3 | – | – | – | COc1cc2ncnc(Nc3ccc(F)c(Cl)c3)c2cc1NC(=O)/C(F)=C/CN(C)C [2-1(hydrochloride), (Z)—N-(4-((3-chloro-4-fluorophenyl)amino)-7-methoxyquinazolin-6-yl)-4-(dimethylamino)-2-fluorobut-2-enamide] | well tolerated | – | – | – | – | – | – | Inhibition of growth of NCI-H1975 in nude mice (in words) (NCI-H1975): significantly inhibit the growth
4 | 369 | 4.5 | 63 | COc1cc2ncnc(Nc3ccc(F)c(Cl)c3)c2cc1NC(=O)/C(F)=C\CN(C)C [Compound 2-2, (E)-N-(4-((3-chloro-4-fluorophenyl)amino)-7-methoxyquinazolin-6-yl)-4-(dimethylamino)-2-fluorobut-2-enamide] | – | – | – | – | – | – | – | –
5 | 62 | – | – | COc1cc2ncnc(Nc3ccc(OCc4ccccn4)c(Cl)c3)c2cc1NC(=O)/C(F)=C/CN(C)C [Compound 4-1, (Z)—N-(4-((3-chloro-4-(pyridin-2-ylmethoxy)phenyl)amino)-7-methoxyquinazolin-6-yl)-4-(dimethylamino)-2-fluorobut-2-enamide] | – | – | – | – | – | – | – | –
6 | 64 | 9.5 | 206 | COc1cc2ncnc(Nc3ccc(OCc4ccccn4)c(Cl)c3)c2cc1NC(=O)/C(F)=C\CN(C)C [Compound 4-2, (E)-N-(4-((3-chloro-4-(pyridin-2-ylmethoxy)phenyl)amino)-7-methoxyquinazolin-6-yl)-4-(dimethylamino)-2-fluorobut-2-enamide] | – | – | – | – | – | – | – | –
7 | – | – | – | C=C(F)C(=O)Nc1cc2c(Nc3ccc(F)c(Cl)c3)ncnc2cc1OCCCN1CCOCC1 [Compound 5, N-(4-((3-chloro-4-fluorophenyl)amino)-7-(3-morpholinopropoxy)quinazolin-6-yl)-2-fluoroacrylamide] | well tolerated | 177 ± 17 | 160 ± 11 | 164 ± 27 | 147 ± 20 | 151 ± 27 | 131 ± 33 | IC50 [1]: 2500 nM; IC50 (A431 cell): 3200 nM; IC50 (EGFR tyrosine kinase): 0.39 nM
8 | – | – | – | C=C(F)C(=O)Nc1cc2c(Nc3ccc(F)c(Cl)c3F)ncnc2cc1OCC1CCN(C)CC1 [Compound 6, N-(4-((3-chloro-2,4-difluorophenyl)amino)-7-((1-methylpiperidin-4-yl)methoxy)quinazolin-6-yl)-2-fluoroacrylamide] | well tolerated | 179 ± 13 | 154 ± 35 | 113 ± 26 | 66 ± 16 | 58 ± 11 | 57 ± 11 | IC50 [1]: 1200 nM; IC50 (A431 cell): 500 nM; IC50 (EGFR tyrosine kinase): 0.54 nM

Row | SMILES | IC50 (HER2) [nM] | IC50 (EGFR) [nM] | IC50 (HER4) [nM] | Tolerability in mice (NCI-H1975) | Tumor volume (NCI-H1975; Day 0) [mm^3] | Tumor volume (NCI-H1975; Day 2) [mm^3] | Tumor volume (NCI-H1975; Day 4) [mm^3] | Tumor volume (NCI-H1975; Day 7) [mm^3] | Tumor volume (NCI-H1975; Day 9) [mm^3] | Tumor volume (NCI-H1975; Day 11) [mm^3] | other results
9 | COc1cc2ncnc(Nc3ccc(F)c(Cl)c3)c2cc1NC(=O)/C(F)=C/CN(C)C [Compound 2-1, (Z)—N-(4-((3-chloro-4-fluorophenyl)amino)-7-methoxyquinazolin-6-yl)-4-(dimethylamino)-2-fluorobut-2-enamide] | 75 | 1.3 | 23 | – | 190 ± 17 | 153 ± 11 | 121 ± 27 | 130 ± 20 | 134 ± 27 | 164 ± 33 | Inhibition of growth of NCI-H1975 in nude mice (in words) (NCI-H1975): strong inhibitory
